Data taken from the Kinase Knowledgebase extract (Sharma et al. 2016).
pIC50: −log10 of the molar value. Several values for one entry are separate records, joined by “and”; a condition that tells them apart may be missing. Equal entries are not always repeated.

target: PIK3CA (human) (UniProt P42336); assay: Inhibition of PIK3CA Kinase Activity
Sequence (P42336 whole entry, looked up): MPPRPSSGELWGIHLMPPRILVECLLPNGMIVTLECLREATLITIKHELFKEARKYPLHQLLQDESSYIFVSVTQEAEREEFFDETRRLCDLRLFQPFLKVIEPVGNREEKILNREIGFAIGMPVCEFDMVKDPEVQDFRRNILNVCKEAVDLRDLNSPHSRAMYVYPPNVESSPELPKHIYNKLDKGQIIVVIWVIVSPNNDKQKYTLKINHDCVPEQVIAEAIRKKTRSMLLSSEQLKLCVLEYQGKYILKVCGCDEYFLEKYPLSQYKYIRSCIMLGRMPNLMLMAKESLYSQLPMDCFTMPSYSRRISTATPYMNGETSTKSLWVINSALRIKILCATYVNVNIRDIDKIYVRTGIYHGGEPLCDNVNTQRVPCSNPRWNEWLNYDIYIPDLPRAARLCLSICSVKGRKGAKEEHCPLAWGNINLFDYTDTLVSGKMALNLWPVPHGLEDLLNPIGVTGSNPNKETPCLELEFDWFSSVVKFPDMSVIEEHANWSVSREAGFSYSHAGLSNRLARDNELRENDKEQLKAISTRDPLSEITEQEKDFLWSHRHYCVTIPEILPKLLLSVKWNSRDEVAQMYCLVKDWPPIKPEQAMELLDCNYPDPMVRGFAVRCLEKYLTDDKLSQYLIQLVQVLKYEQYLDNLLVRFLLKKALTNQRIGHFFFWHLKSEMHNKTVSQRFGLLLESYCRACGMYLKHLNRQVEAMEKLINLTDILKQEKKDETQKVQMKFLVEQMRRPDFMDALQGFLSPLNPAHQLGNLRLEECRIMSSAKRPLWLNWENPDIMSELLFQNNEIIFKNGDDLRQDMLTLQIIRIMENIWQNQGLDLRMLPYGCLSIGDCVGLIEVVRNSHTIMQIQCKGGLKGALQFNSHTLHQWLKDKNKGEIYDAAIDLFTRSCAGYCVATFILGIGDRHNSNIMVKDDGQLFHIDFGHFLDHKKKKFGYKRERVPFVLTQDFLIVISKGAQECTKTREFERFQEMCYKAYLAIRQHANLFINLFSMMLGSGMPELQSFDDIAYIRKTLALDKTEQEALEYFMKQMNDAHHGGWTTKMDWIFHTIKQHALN

Q: With `Cc1nc(-c2cn3c(n2)-c2cc(-c4ccnn4[C@@H]4CCCN(C5COC5)C4)c(F)cc2OCC3)n(C(C)C)n1` as the compound, how does the pIC50 read?
A: 7.44

Q: With `CC(C)n1ncnc1-c1cn2c(n1)-c1cc(CN3CCN(C(C)(C)C)CC3)ccc1OCC2` as the compound, how does the pIC50 read?
A: 7.27

Q: `Cc1nc(-c2cn3c(n2)-c2cc(C(C)N4CCN(C5COC5)CC4)c(C)cc2OCC3)n(C(C)C)n1` (configuration not stated) was tested. Which pIC50 did it give?
A: 6.90

Q: How did the pIC50 turn out when `Cc1nc(-c2cn3c(n2)-c2ccc(N4CCC4[C@@H]4CCCN(C(C)C)C4)cc2OCC3)n(C(C)C)n1` (some centres not stated) was run?
A: 8.47

Q: `COc1cc2c(cc1[C@@H](C)N1CCN(C(C)(C)C)CC1)-c1nc(-c3nc(C)nn3C(C)C)cn1CCO2` was tested. Which pIC50 did it give?
A: 7.01 and 7.32

Q: `Cc1nc(-c2cn3c(n2)-c2cc([C@@H](C)N4CCN(C(C)(C)CO)CC4)c(F)cc2OCC3)n(C(C)C)n1` was tested. Which pIC50 did it give?
A: 6.58

Q: How did the pIC50 turn out when `CC(C)n1ncnc1-c1cn2c(n1)-c1cc(C(=O)N3CCN(C(C)(C)C)CC3)ccc1OCC2` was run?
A: 7.60

Q: `Cc1nc(-c2cn3c(n2)-c2ccc(-c4ccnn4[C@H]4CCCN(C(C)(C)CO)C4)cc2OCC3)n(C(C)C)n1` was tested. Which pIC50 did it give?
A: 7.37

Q: How did the pIC50 turn out when `Cc1nc(-c2cn3c(n2)-c2cc(C(=O)N4CCN(C(C)(C)CO)CC4)c(F)cc2OCC3)n(C(C)C)n1` was run?
A: 6.76

Q: How did the pIC50 turn out when `CC(Oc1ccc2c(c1)OCCn1cc(-c3ncnn3C(C)C)nc1-2)C1CCN(C(C)C)CC1` (configuration not stated) was run?
A: 8.20

Q: With `Cc1nc(-c2cn3c(n2)-c2cc([C@H](C)N4CCN(C(C)(C)CO)CC4)ncc2OCC3)n(C(C)C)n1` as the compound, how does the pIC50 read?
A: 6.74

Q: How did the pIC50 turn out when `Cc1nc(-c2cn3c(n2)-c2ccc(-c4ccnn4C4CC(C)N(C)C(C)C4)cc2OCC3)n(C(C)C)n1` (configuration not stated) was run?
A: 7.00

Q: With `Cc1nc(-c2cn3c(n2)-c2ccc(-c4ccnn4C4CCCN(Cc5ccccc5)C4)cc2OCC3)n(C(C)C)n1` (configuration not stated) as the compound, how does the pIC50 read?
A: 6.73

Q: `Cc1nc(-c2cn3c(n2)-c2cc([C@@H](C)N4CCN(C(C)(C)C)CC4)c(F)cc2OCC3)n(C(C)C)n1` was tested. Which pIC50 did it give?
A: 6.43

Q: How did the pIC50 turn out when `Cc1nc(-c2cn3c(n2)-c2cc([C@H](C)N4CCN(C(C)C)CC4)c(F)cc2OCC3)n(C(C)C)n1` was run?
A: 7.22

Q: `CCN1CCC(C2CCCN2c2ccc3c(c2)OCCn2cc(-c4nc(C)nn4C(C)C)nc2-3)CC1` (configuration not stated) was tested. Which pIC50 did it give?
A: 7.72

Q: How did the pIC50 turn out when `Cc1nc(-c2cn3c(n2)-c2ccc(N4CCCC45CCCN(C(C)C)C5)cc2OCC3)n(C(C)C)n1` (configuration not stated) was run?
A: 7.14

Q: How did the pIC50 turn out when `Cc1nc(-c2cn3c(n2)-c2cc([C@H](C)N4CCN(C(C)(C)C)CC4)ncc2OCC3)n(C(C)C)n1` was run?
A: 6.66

Q: How did the pIC50 turn out when `Cc1nc(-c2cn3c(n2)-c2ccc(-c4cnc(C)n4C4CCCN(C(C)C)C4)cc2OCC3)n(C(C)C)n1` (configuration not stated) was run?
A: 6.84

Q: How did the pIC50 turn out when `Cc1nc(-c2cn3c(n2)-c2ccc(N4CCC[C@@H]4C4CCN(C(C)C)CC4)cc2OCC3)n(C(C)C)n1` was run?
A: 7.66

Q: How did the pIC50 turn out when `CC(C)n1ncnc1-c1cn2c(n1)-c1cnc(N3CCCC3C3CCN(C)CC3)cc1OCC2` (configuration not stated) was run?
A: 7.86

Q: How did the pIC50 turn out when `Cc1nc(-c2cn3c(n2)-c2ccc(N4CCC4C4CCN(C(C)C)CC4)cc2OCC3)n(C(C)C)n1` (configuration not stated) was run?
A: 7.82

Q: `Cc1nc(-c2cn3c(n2)-c2ccc(-c4cn(C)nc4C4CCCN(C(C)C)C4)cc2OCC3)n(C(C)C)n1` (configuration not stated) was tested. Which pIC50 did it give?
A: 7.55

Q: With `Cc1nc(-c2cn3c(n2)-c2cc(-c4ccnn4[C@@H]4CCCN(C(C)(C)CO)C4)c(F)cc2OCC3)n(C(C)C)n1` as the compound, how does the pIC50 read?
A: 7.32 and 7.71

Q: `Cc1nc(-c2cn3c(n2)-c2ccc(-c4ccnn4C4CCN(C(C)(C)C)CC4)cc2OCC3)n(C(C)C)n1` was tested. Which pIC50 did it give?
A: 7.35

Q: With `Cc1nc(-c2cn3c(n2)-c2ccc(-c4cnn(C)c4C4CN(C(C)C)CCO4)cc2OCC3)n(C(C)C)n1` (configuration not stated) as the compound, how does the pIC50 read?
A: 7.75 and 6.97 and 7.38

Q: `CCN(CC)C1CCOC(c2c(-c3ccc4c(c3)OCCn3cc(-c5nc(C)nn5C(C)C)nc3-4)cnn2C)C1` (configuration not stated) was tested. Which pIC50 did it give?
A: 7.19 and 7.18 and 7.26

Q: How did the pIC50 turn out when `Cc1nc(-c2cn3c(n2)-c2ccc(N4CCCC4C4CCN(S(C)(=O)=O)CC4)cc2OCC3)n(C(C)C)n1` (configuration not stated) was run?
A: 7.83

Q: How did the pIC50 turn out when `Cc1nc(-c2cn3c(n2)-c2ccc(N4CCC[C@H]4CN4CCCC4)cc2OCC3)n(C(C)C)n1` was run?
A: 8.20

Q: How did the pIC50 turn out when `Cc1nc(-c2cn3c(n2)-c2ccc(OC4(C)CCN(C(C)C)C4)cc2OCC3)n(C(C)C)n1` (configuration not stated) was run?
A: 8.04

Q: How did the pIC50 turn out when `CC(C)n1nc(N)nc1-c1cn2c(n1)-c1ccc(-c3ccnn3C3CCN(C(C)(C)C)CC3)cc1OCC2` was run?
A: 7.09

target: PIK3CD (Human) (UniProt O00329); assay: Enzyme Assay
Sequence (O00329 whole entry, looked up): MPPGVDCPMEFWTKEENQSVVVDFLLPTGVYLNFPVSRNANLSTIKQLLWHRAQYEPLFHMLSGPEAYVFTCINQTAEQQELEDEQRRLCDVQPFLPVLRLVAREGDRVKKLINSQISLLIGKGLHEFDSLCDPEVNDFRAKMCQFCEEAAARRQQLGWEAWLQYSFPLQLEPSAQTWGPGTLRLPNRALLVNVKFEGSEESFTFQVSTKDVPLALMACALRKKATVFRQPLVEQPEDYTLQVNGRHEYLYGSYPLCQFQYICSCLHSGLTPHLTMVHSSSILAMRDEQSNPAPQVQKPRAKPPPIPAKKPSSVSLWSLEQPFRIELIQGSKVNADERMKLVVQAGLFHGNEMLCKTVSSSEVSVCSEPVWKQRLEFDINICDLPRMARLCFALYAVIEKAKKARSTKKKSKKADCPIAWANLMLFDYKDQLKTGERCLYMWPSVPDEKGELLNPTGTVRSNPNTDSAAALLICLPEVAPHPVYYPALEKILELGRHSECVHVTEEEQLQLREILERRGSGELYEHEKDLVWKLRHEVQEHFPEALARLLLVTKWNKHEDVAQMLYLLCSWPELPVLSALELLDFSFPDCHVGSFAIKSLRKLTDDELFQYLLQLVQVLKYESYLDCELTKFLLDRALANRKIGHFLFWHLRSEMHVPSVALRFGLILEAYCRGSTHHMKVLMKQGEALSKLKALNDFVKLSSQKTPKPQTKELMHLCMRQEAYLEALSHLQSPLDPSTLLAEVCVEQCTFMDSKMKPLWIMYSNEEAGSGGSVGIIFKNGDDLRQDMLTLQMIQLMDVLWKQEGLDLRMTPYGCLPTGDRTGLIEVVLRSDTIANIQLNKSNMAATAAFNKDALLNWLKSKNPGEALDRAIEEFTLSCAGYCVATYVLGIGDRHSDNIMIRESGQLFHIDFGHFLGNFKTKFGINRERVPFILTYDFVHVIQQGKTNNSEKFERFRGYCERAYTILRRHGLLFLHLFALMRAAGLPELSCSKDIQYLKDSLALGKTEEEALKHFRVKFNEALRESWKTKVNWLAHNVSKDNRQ

Q: With `Cc1nc(-c2cn3c(n2)-c2ccc(-c4cnn(C)c4C4CN(C(C)C)CCO4)cc2OCC3)n(C(C)C)n1` (configuration not stated) as the compound, how does the pIC50 read?
A: 8.92 and 8.97
